Assay results from US9365583B2, “Substituted pyrazoles and uses thereof” (Genentech, Inc., priority 2013, dated 2016).

Molecular target: T1, N-terminally GST-tagged DLK (catalytic domain amino acid 1-520) (Homo sapiens, UniProt Q12852)
T1 construct: N-terminally GST-tagged DLK (catalytic domain amino acid 1-520); purchased Carna Bioscience
T1 sequence (Q12852 1-520): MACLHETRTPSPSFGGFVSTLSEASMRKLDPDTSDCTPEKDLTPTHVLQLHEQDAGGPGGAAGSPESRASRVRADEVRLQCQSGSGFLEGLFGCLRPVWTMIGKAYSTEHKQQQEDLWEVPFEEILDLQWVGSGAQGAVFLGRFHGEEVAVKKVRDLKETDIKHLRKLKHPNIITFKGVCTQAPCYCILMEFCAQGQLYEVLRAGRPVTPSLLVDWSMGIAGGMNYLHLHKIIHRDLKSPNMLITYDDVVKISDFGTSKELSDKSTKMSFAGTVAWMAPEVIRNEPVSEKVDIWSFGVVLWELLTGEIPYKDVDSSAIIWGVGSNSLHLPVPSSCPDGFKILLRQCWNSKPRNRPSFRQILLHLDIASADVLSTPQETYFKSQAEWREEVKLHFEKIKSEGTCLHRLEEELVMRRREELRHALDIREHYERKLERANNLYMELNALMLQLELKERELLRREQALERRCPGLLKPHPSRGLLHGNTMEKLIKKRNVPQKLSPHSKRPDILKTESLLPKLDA
Test: DLK TR-FRET inhibition assay
Type: biochemical
Settings: 5 nM GST-DLK, 40 nM HIS-MKK4 K131M substrate, 30 μM ATP, 60 minutes at ambient temperature
Procedure, shortened: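 5 nM GST-DLK (aa 1-520), 40 nM HIS-MKK4 K131M and 30 μM ATP reacted 60 min at ambient temperature in HEPES pH 7.5 buffer with 10 mM MgCl2, compound 1:3 serially diluted from 20 uM. TR-FRET detection of phospho-MKK4 used Eu-cryptate anti-phospho-MKK4 plus D2 anti-HIS, read after 3 h (665/615 nm).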

Question: How did the Ki turn out when `CC(C)n1nc(-c2cnc(N)c(C(F)(F)F)c2)cc1[C@H]1[C@@H]2C[C@H](N3C[C@@H]4C[C@H]3CO4)C[C@@H]21` [compound 72, 5-(5-((1R,3r,5S,6S)-3-((1S,4S)-2-oxa-5-azabicyclo[2.2.1]heptan-5-yl)bicyclo[3.1.0]hexan-6-yl)-1-isopropyl-1H-pyrazol-3-yl)-3-(trifluoromethyl)pyridin-2-amine] was run?
Answer: 3.48 nM

Question: Which Ki does the source give for `COC1CCN([C@H]2C[C@@H]3[C@H](C2)[C@H]3c2cc(-c3cnc(N)c(OC(F)F)c3)nn2C(C)C)C1` (stereo partly drawn) [compound 73, 3-(difluoromethoxy)-5-(1-isopropyl-5-((lR,3r,5S,6r)-3-(3-methoxy-pyrrolidin-1-yl)bicyclo[3.1.0]hexan-6-yl)-1H-pyrazol-3-yl) pyridin-2-amine] here?
Answer: 1.81 nM

Question: Which Ki does the source give for `CC(C)n1nc(-c2cnc(N)c(OC(F)F)c2)cc1[C@H]1[C@@H]2C[C@@H](N3CCO[C@H](C)C3)C[C@@H]21` [compound 74, 3-(difluoromethoxy)-5-(1-isopropyl-5-((1R,3s,5S,6R)-3-((R)-2-methylmorpholino)bicyclo[3.1.0]hexan-6-yl)-1H-pyrazol-3-yl) pyridin-2-amine] here?
Answer: 3.75 nM

Question: For `CC(C)n1nc(-c2cnc(N)c(OC(F)F)c2)cc1[C@H]1[C@@H]2C[C@@H](N3CCO[C@@H](C)C3)C[C@@H]21` [compound 75, 3-(difluoromethoxy)-5-(1-isopropyl-5-((1R,3s,5S,6S)-3-((S)-2-methylmorpholino)bicyclo[3.1.0]hexan-6-yl)-1H-pyrazol-3-yl) pyridin-2-amine], which Ki is on record?
Answer: 0.74 nM

Question: `CC(C)n1nc(-c2cnc(N)c(C(F)(F)F)c2)cc1C1[C@H]2CC(N3CCOCC3)C[C@@H]12` (stereo partly drawn) [compound 76, 5-(1-isopropyl-5-((1R,3s,5S,6r)-3-morpholinobicyclo[3.1.0]hexan-6-yl)-1H-pyrazol-3-yl)-3-(trifluoromethyl)pyridin-2-amine] was tested. Which Ki did it give?
Answer: 2.17 nM

Question: `CC(C)n1nc(-c2cnc(N)c(OC(F)F)c2)cc1[C@H]1[C@@H]2C[C@H](N3CCO[C@H](C)C3)C[C@@H]21` [compound 77, 3-(difluoromethoxy)-5-(1-isopropyl-5-((1R,3r,5S,6R)-3-((R)-2-methylmorpholino)bicyclo[3.1.0]hexan-6-yl)-1H-pyrazol-3-yl) pyridin-2-amine] was tested. Which Ki did it give?
Answer: 1.3 nM

Question: For `CC(C)n1nc(-c2cnc(N)c(OC(F)F)c2)cc1[C@H]1[C@@H]2C[C@H](N3CCO[C@@H](C)C3)C[C@@H]21` [compound 78, 3-(difluoromethoxy)-5-(1-isopropyl-5-((1R,3r,5S,6S)-3-((S)-2-methylmorpholino)bicyclo[3.1.0]hexan-6-yl)-1H-pyrazol-3-yl) pyridin-2-amine], which Ki is on record?
Answer: 0.52 nM

Question: `CC(C)n1nc(-c2cnc(N)c(OC(F)F)c2)cc1[C@H]1[C@@H]2C[C@@H](N3CCOC[C@@H]3C)C[C@@H]21` [compound 79, 3-(difluoromethoxy)-5-(1-isopropyl-5-((1R,3s,5S,6S)-3-((S)-3-methylmorpholino)bicyclo[3.1.0]hexan-6-yl)-1H-pyrazol-3-yl) pyridin-2-amine] was tested. Which Ki did it give?
Answer: 1.1 nM

Question: `CC(C)n1nc(-c2cnc(N)c(OC(F)F)c2)cc1[C@H]1[C@@H]2C[C@H](N3CCOC[C@@H]3C)C[C@@H]21` [compound 80, 3-(difluoromethoxy)-5-(1-isopropyl-5-((1R,3r,5S,6S)-3-((S)-3-methylmorpholino)bicyclo[3.1.0]hexan-6-yl)-1H-pyrazol-3-yl) pyridin-2-amine] was tested. Which Ki did it give?
Answer: 0.6 nM

Question: How did the Ki turn out when `CC(C)n1nc(-c2cnc(N)c(OC(F)F)c2)cc1[C@H]1[C@@H]2C[C@H](N3CCOC[C@H]3C)C[C@@H]21` [compound 81, 3-(difluoromethoxy)-5-(1-isopropyl-5-((1R,3r,5S,6R)-3-((R)-3-methylmorpholino)bicyclo[3.1.0]hexan-6-yl)-1H-pyrazol-3-yl) pyridin-2-amine] was run?
Answer: 1.43 nM

Question: Which Ki does the source give for `CC(C)n1nc(-c2cnc(N)c(OC(F)F)c2)cc1[C@H]1[C@@H]2C[C@@H](N3CCOC[C@H]3C)C[C@@H]21` [compound 82, 3-(difluoromethoxy)-5-(1-isopropyl-5-((1R,3s,5S,6R)-3-((R)-3-methylmorpholino)bicyclo[3.1.0]hexan-6-yl)-1H-pyrazol-3-yl) pyridin-2-amine] here?
Answer: 1.43 nM

Question: With `CC(C)n1nc(-c2cnc(N)c(OC(F)F)c2)cc1[C@H]1[C@@H]2C[C@H](N3C[C@@H]4C[C@H]3CO4)C[C@@H]21` [compound 83, 5-(5-((1R,3r,5S,6S)-3-((1S,4S)-2-oxa-5-azabicyclo[2.2.1]heptan-5-yl)bicyclo[3.1.0]hexan-6-yl)-1-isopropyl-1H-pyrazol-3-yl)-3-(difluoromethoxy)pyridin-2-amine] as the compound, how does the Ki read?
Answer: 0.12 nM

Question: For `CC(C)n1nc(-c2cnc(N)c(OC(F)F)c2)cc1[C@H]1[C@@H]2C[C@@H](N3CCOCC3)C[C@@H]21` [compound 84, 3-(difluoromethoxy)-5-(1-isopropyl-5-((1R,3s,5S,6r)-3-morpholino-bicyclo[3.1.0]hexan-6-yl)-1H-pyrazol-3-yl)pyridin-2-amine], which Ki is on record?
Answer: 1.68 nM

Question: Which Ki does the source give for `CC(C)n1nc(-c2cnc(N)c(OC(F)F)c2)cc1[C@H]1[C@@H]2CC(=O)C[C@@H]21` [compound 85, (1R,5S,6r)-6-(3-(6-amino-5-(difluoro-methoxy)pyridin-3-yl)-1-isopropyl-1H-pyrazol-5-yl)bicyclo [3.1.0]hexan-3-one] here?
Answer: 47.8 nM

Question: How did the Ki turn out when `CC(C)n1nc(-c2cnc(N)c(OC(F)F)c2)cc1[C@H]1[C@@H]2C[C@H](N3CCOCC3)C[C@@H]21` [compound 86, 3-(difluoromethoxy)-5-(1-isopropyl-5-((1R,3r,5S,6r)-3-morpholino-bicyclo[3.1.0]hexan-6-yl)-1H-pyrazol-3-yl)pyridin-2-amine] was run?
Answer: 1.6 nM

Question: Which Ki does the source give for `CC(C)n1nc(-c2cnc(N)c(OC(F)F)c2)cc1[C@H]1[C@@H]2C[C@@H](N3CCCOCC3)C[C@@H]21` [compound 87, 5-(5-((1R,3s,5S,6r)-3-(1,4-oxazepan-4-yl)bicyclo[3.1.0]hexan-6-yl)-1-isopropyl-1H-pyrazol-3-yl)-3-(difluoromethoxy)pyridin-2-amine] here?
Answer: 0.64 nM

Question: With `CC(C)n1nc(-c2cnc(N)c(OC(F)F)c2)cc1[C@H]1[C@@H]2C[C@@H](N3CCN4CCCC4C3)C[C@@H]21` (stereo partly drawn) [compound 88, 3-(difluoromethoxy)-5-(5-((1R,3s,5S,6r)-3-(hexahydropyrrolo [1,2-a]pyrazin-2(1H)-yl)bicyclo [3.1.0]hexan-6-yl)-1-isopropyl-1H-pyrazol-3-yl)pyridin-2-amine] as the compound, how does the Ki read?
Answer: 1.4 nM

Question: For `CC(C)n1nc(-c2cnc(N)c(OC(F)F)c2)cc1[C@H]1[C@@H]2C[C@H](N3CCC(F)(F)C3)C[C@@H]21` [compound 89, 3-(difluoromethoxy)-5-(5-((1R,3r,5S,6r)-3-(3,3-difluoropyrrolidin-1-yl)bicyclo[3.1.0]hexan-6-yl)-1-isopropyl-1H-pyrazol-3-yl) pyridin-2-amine], which Ki is on record?
Answer: 6.42 nM

Question: Which Ki does the source give for `CO[C@H]1CCN([C@@H]2C[C@@H]3[C@H](C2)[C@H]3c2cc(-c3cnc(N)c(C(F)(F)F)c3)nn2C(C)C)C1` [compound 90, (1-isopropyl-5-((1R,3s,5S,6S)-3-((S)-3-methoxypyrrolidin-1-yl)bicyclo[3.1.0]hexan-6-yl)-1H-pyrazol-3-yl)-3-(trifluoromethyl) pyridin-2-amine] here?
Answer: 5.95 nM

Question: How did the Ki turn out when `Nc1ncc(-c2cc([C@H]3[C@@H]4C[C@H](N5CCOCC5)C[C@@H]43)n(CC(F)F)n2)cc1C(F)(F)F` [compound 91, 5-(1-(2,2-difluoroethyl)-5-((1R,3r,5S,6r)-3-morpholinobicyclo [3.1.0]hexan-6-yl)-1H-pyrazol-3-yl)-3-(trifluoromethyl)pyridin-2-amine] was run?
Answer: 3.79 nM

Question: `CC(C)n1nc(-c2cnc(N)c(OC(F)F)c2)cc1[C@H]1[C@@H]2CC3(CCO3)C[C@@H]21` (stereo partly drawn) [compound 92, 3-(difluoromethoxy)-5-(1-isopropyl-5-((1 R,5S,6r)-spiro[bicyclo [3.1.0]hexane-3,2′-oxetan]-6-yl)-1H-pyrazol-3-yl)pyridin-2-amine] was tested. Which Ki did it give?
Answer: 9.4 nM

Question: With `Nc1ncc(-c2cc([C@H]3[C@@H]4C[C@H](N5CCOCC5)C[C@@H]43)n(CC(F)F)n2)cc1OC(F)(F)F` [compound 93, 5-(1-(2,2-difluoroethyl)-5-((1R,3r,5S,6r)-3-morpholinobicyclo [3.1.0]hexan-6-yl)-1H-pyrazol-3-yl)-3-(trifluoromethoxy)pyridin-2-amine] as the compound, how does the Ki read?
Answer: 1.22 nM

Question: Which Ki does the source give for `Nc1ncc(-c2cc([C@H]3[C@@H]4CC(O)C[C@@H]43)n(CC(F)F)n2)cc1OC(F)(F)F` (stereo partly drawn) [compound 94, (1R,5S,6r)-6-(3-(6-amino-5-(trifluoromethoxy)pyridin-3-yl)-1-(2,2-difluoroethyl)-1H-pyrazol-5-yl)bicyclo[3.1.0]hexan-3-ol] here?
Answer: 1.45 nM

Question: With `CC(C)n1nc(-c2cnc(N)c(SC(F)(F)F)c2)cc1[C@H]1[C@@H]2C[C@@H](N3CCOCC3)C[C@@H]21` [compound 95, 5-(1-isopropyl-5-((1R,3s,5S,6r)-3-morpholinobicyclo[3.1.0]hexan-6-yl)-1H-pyrazol-3-yl)-3-((trifluoro-methyl)thio)pyridin-2-amine] as the compound, how does the Ki read?
Answer: 2.13 nM
